Our source for the Kd values is article PMC12073679, “Drug Repurposing to Inhibit Oncostatin M in Crohn’s Disease” (Molecules, 2025).

For orientation: Kd means the equilibrium constant for the complex coming apart.

The experiment has as its target T1, recombinant human oncostatin M (Homo sapiens, UniProt P13725).
T1 construct: gene OSM; labelled with RED-NHS 2nd generation dye for MST
T1 sequence (P13725 26-221): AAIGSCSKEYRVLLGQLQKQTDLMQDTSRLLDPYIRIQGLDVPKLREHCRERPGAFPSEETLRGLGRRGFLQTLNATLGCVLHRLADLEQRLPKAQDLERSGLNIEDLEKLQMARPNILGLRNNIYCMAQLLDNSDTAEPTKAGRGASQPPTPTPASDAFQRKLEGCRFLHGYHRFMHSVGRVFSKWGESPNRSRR
The experiment is described as follows: microscale thermophoresis. Type of experiment: binding.

With `CC1(C)[C@@H]2CC[C@@]1(CS(=O)(=O)O)C(=O)/C2=C/c1ccc(/C=C2/C(=O)[C@]3(CS(=O)(=O)O)CC[C@H]2C3(C)C)cc1` [1a, Ecamsule], the Kd was 11.4 ± 2.83 µM.
